Laboratory results taken from patent publication US7727980B2, “Tricyclic androgen receptor modulator compounds and methods” (priority 2001, dated 2010).

Tests used:
[1] = target: T1, human AR (Homo sapiens, UniProt P10275); assay: AR whole cell competitive binding assay (3H-DHT), transfected COS-1 cells; set-up: expressed in transfected cells; transient transfection with pRShAR; conditions: AR Binding Ki (nM), COS-1 cells, 1 nM 3H-DHT, Cheng-Prusoff from IC50
T1 sequence (P10275 1-920): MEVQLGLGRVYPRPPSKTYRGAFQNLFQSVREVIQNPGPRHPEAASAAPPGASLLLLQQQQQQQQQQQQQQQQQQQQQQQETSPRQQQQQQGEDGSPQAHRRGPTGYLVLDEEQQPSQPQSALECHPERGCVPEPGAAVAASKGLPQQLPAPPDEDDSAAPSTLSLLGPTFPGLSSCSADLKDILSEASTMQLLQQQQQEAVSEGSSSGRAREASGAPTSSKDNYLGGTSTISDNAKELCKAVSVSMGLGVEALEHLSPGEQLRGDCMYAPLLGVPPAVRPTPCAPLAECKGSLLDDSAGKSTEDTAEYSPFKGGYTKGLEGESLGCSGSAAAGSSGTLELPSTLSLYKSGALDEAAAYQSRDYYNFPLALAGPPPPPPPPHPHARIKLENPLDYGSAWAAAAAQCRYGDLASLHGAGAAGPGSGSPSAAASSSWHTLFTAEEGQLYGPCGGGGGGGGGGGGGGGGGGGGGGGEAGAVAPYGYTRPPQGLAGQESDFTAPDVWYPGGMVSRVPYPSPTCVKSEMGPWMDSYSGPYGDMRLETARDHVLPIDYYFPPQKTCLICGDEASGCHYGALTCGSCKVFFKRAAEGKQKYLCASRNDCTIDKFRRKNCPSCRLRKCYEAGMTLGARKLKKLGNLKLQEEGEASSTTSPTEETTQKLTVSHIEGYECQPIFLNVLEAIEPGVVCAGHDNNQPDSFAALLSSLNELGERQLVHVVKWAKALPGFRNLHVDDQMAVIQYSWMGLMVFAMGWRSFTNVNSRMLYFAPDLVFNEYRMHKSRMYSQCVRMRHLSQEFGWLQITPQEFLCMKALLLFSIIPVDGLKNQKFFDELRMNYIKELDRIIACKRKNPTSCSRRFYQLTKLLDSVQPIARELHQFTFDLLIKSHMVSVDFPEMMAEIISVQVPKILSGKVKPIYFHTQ

[2] = target: T1, human AR; assay: Co-transfection assay, AR agonist activity, CV-1 cells; type: cell-based; set-up: expressed in transfected cells; host or cells: CV-1 cells (African green monkey kidney fibroblasts), transient transfection with pRShAR; conditions: for EC50: AR Agonist CV-1 Cells Potency (nM), agonist potency or EC50; for AR Agonist CV-1 Cells Efficacy (%): percent maximal response relative to reference agonist DHT
[3] = target: T1, human AR; assay: Co-transfection assay, AR antagonist activity in presence of DHT, CV-1 cells; type: cell-based; set-up: expressed in transfected cells; host or cells: CV-1 cells (African green monkey kidney fibroblasts), transient transfection with pRShAR; conditions: CV-1 cells; for IC50: AR Antagonist CV-1 Cells Potency (nM), antagonist potency or IC50, DHT at its EC50 concentration; for AR Antagonist CV-1 Cells Efficacy (%): percent maximal inhibition, DHT at its EC50 concentration

SMILES	Ki [1] [nM]	EC50 [2] [nM]	AR Agonist CV-1 Cells Efficacy (%) [2]	IC50 [3] [nM]	AR Antagonist CV-1 Cells Efficacy (%) [3]
CCC1CCOc2cc3c(cc21)c(C(F)(F)F)c(F)c(=O)n3C (racemic) [Compound 221, (±)-6,7-Dihydro-6-ethyl-3-fluoro-4-trifluoromethyl-1-methyl-8H-pyrano[3,2-g]quinolin-2(1H)-one]	29	> 10000	na (na = not active (i.e. efficacy of <20 and potency of >10,000))	311	78%
O=c1cc(C(F)(F)F)c2c3c(ccc2[nH]1)N(CC(F)(F)F)C1CCCC31 (single isomer, unassigned; (+)) [Compound 178, (+)-4c,5,6,7,7a(cis),8-Hexahydro-8-(2,2,2-trifluoroethyl)-4-trifluoromethylcyclopentano-[g]pyrrolo[3,2-f]quinolin-2(1H)-one]	900	21	24%	50	48%
O=c1cc(C(F)(F)F)c2c3c(ccc2[nH]1)N(CC(F)(F)F)C1CCCC31 (single isomer, unassigned; (-)) [Compound 179, (−)-4c,5,6,7,7a(cis),8-Hexahydro-8-(2,2,2-trifluoroethyl)-4-trifluoromethylcyclopentano-[g]pyrrolo[3,2-f]quinolin-2(1H)-one]	4.1	1.3	91%	> 10000	na (na = not active (i.e. efficacy of <20 and potency of >10,000))
CC1(C)CCc2c(ccc3[nH]c(=O)cc(C(F)(F)F)c23)N1 [Compound 104, 5,6,7,8-Tetrahydro-7,7-dimethyl-4-trifluoromethylpyridino[3,2-f]quinolin-2(1H)-one]	15	183	78%	1.8	50%
CCC1(CC)CCc2c(ccc3[nH]c(=O)cc(C(F)(F)F)c23)N1 [Compound 105, 5,6,7,8-Tetrahydro-7,7-diethyl-4-trifluoromethylpyridino[3,2-f]quinolin-2(1H)-one]	45	32	57%	> 10000	na (na = not active (i.e. efficacy of <20 and potency of >10,000))
CC1(C)C=Cc2c(ccc3[nH]c(=O)cc(C(F)(F)F)c23)N1 [Compound 106, 7,8-Dihydro-7,7-dimethyl-4-trifluoromethylpyridino[3,2-f]quinolin-2(1H)-one]	45	12	108%	> 10000	na (na = not active (i.e. efficacy of <20 and potency of >10,000))
CCN1c2ccc3[nH]c(=O)cc(C(F)(F)F)c3c2CCC1(C)C [Compound 108, 8-Ethyl-5,6,7,8-tetrahydro-7,7-dimethyl-4-trifluoromethylpyridino[3,2-f]quinolin-2(1H)-one]	6.7	–	66%	> 10000	na (na = not active (i.e. efficacy of <20 and potency of >10,000))
CCCN1c2ccc3[nH]c(=O)cc(C(F)(F)F)c3c2CCC1(C)C [Compound 109, 5,6,7,8-Tetrahydro-7,7-dimethyl-4-trifluoromethyl-8-propylpyridino[3,2-f]quinolin-2(1H)-one]	1.2	13	97%	> 10000	na (na = not active (i.e. efficacy of <20 and potency of >10,000))
CC1(C)CCc2c(ccc3[nH]c(=O)cc(C(F)(F)F)c23)N1CC(F)(F)F [Compound 110, 8-(2,2,2-Trifluoroethyl)-5,6,7,8-tetrahydro-7,7-dimethyl-4-trifluoromethyl-pyridino[3,2-f]quinolin-2(1H)-one]	21	21	106%	> 10000	na (na = not active (i.e. efficacy of <20 and potency of >10,000))
O=c1cc(C(F)(F)F)c2c(ccc3c2c2ccccc2n3CC(F)(F)F)[nH]1 [Compound 158, 9-(2,2,2-Trifluoroethyl)-4-trifluoromethyl-9H-benzo[g]pyrrolo[3,2f]quinolin-2(1H)-one]	7.1	7.9	59%	> 10000	na (na = not active (i.e. efficacy of <20 and potency of >10,000))
O=c1cc(C(F)(F)F)c2cc3c(cc2[nH]1)c1c(n3CC(F)(F)F)CCC1 [Compound 159, 6-(2,2,2-Trifluoroethyl)-4-trifluoromethyl-6,7,8,9-tetrahydrocyclopentano[i]pyrrolo[2,3-g]quinolin-2(1H)-one]	989	> 10000	na (na = not active (i.e. efficacy of <20 and potency of >10,000))	15	66%
C=CCc1c(C)[nH]c2c1ccc1[nH]c(=O)cc(C(F)(F)F)c12 [Compound 173, 7-Allyl-6-methyl-4-trifluoromethyl-5H-pyrrolo[2,3-f]quinolin-2(1H)-one]	80	138	41%	1	56%
CCc1[nH]c2c(ccc3[nH]c(=O)cc(C(F)(F)F)c32)c1C [Compound 175, 6-Ethyl-7-methyl-4-trifluoromethyl-5H-pyrrolo[2,3-f]quinolin-2(1H)-one]	239	> 10000	na (na = not active (i.e. efficacy of <20 and potency of >10,000))	11	78%
Cc1[nH]c2c(ccc3[nH]c(=O)cc(C(F)(F)F)c32)c1CCO [Compound 177, 7-(2-Hydroxyethyl)-6-methyl-4-trifluoromethyl-5H-pyrrolo[2,3-f]quinolin-2(1H)-one]	31	> 10000	na (na = not active (i.e. efficacy of <20 and potency of >10,000))	790	98%
CC1CCc2cc3[nH]c(=O)cc(C(F)(F)F)c3cc2N1CC1CC1 (stereo not shown) [Compound 195, 4-Trifluoromethyl-7-methyl-6-cyclopropylmethyl-6,7,8,9-tetrahydropyrido[2,3-g]quinolin-2(1H)-one]	20	–	78%	> 10000	na (na = not active (i.e. efficacy of <20 and potency of >10,000))
CC1CCc2cc3[nH]c(=O)cc(C(F)(F)F)c3cc2N1CC(F)(F)F (stereo not shown) [Compound 197, 4-Trifluoromethyl-7-methyl-6-(2,2,2-trifluoroethyl)-6,7,8,9-tetrahydropyrido[2,3-g]quinolin-2(1H)-one]	79	12	66%	> 10000	na (na = not active (i.e. efficacy of <20 and potency of >10,000))
O=c1cc(C(F)(F)F)c2cc3c(cc2[nH]1)CCCN3CC(F)(F)F [Compound 198, 4-Trifluoromethyl-6-(2,2,2-trifluoroethyl)-6,7,8,9-tetrahydropyrido[2,3-g]quinolin-2(1H)-one]	58	1.7	47%	> 10000	na (na = not active (i.e. efficacy of <20 and potency of >10,000))
CCCN1CCCc2cc3[nH]c(=O)cc(C(F)(F)F)c3cc21 [Compound 199, 4-Trifluoromethyl-6-propyl-6,7,8,9-tetrahydropyrido[2,3-g]quinolin-2(1H)-one]	236	42	70%	> 10000	na (na = not active (i.e. efficacy of <20 and potency of >10,000))
